# Results published in article PMC9875641, “Ophthalmic Solution of Smart Supramolecular Peptides to Capture Semaphorin 4D against Diabetic Retinopathy” (Advanced Science, 2022).
# Where a SMILES comes first, the peptide text is derived from it.
# Biological target: T1, sSema 4D (Homo sapiens, UniProt Q92854)
# T1 construct: purchased Novoprotein Ltd. (Suzhou, China)
# T1 sequence (Q92854 22-734 limits assumed): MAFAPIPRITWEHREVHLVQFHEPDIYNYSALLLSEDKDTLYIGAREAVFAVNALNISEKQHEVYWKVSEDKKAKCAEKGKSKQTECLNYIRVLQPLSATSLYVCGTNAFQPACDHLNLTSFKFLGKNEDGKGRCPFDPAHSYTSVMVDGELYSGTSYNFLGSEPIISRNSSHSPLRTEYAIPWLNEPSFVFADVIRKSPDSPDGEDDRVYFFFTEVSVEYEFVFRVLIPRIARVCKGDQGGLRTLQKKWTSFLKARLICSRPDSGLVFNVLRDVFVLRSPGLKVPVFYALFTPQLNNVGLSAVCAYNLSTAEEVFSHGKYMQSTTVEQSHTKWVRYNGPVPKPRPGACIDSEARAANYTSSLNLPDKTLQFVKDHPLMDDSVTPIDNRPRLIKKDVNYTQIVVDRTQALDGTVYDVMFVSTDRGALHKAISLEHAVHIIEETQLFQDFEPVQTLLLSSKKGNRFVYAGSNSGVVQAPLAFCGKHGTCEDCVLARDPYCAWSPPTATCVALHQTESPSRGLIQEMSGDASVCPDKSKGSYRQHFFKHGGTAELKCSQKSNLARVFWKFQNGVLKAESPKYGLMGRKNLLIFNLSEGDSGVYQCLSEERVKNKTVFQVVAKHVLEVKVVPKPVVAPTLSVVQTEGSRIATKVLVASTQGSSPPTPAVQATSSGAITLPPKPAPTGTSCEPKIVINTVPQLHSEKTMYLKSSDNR
# Assay: SPRi binding affinity of TPs to sSema 4D
# Details: SPRi (surface plasmon resonance imaging)
# Description: To carry out the library screening, we first labeled the sSema4D with fluorescein isothiocyanate isomer (FITC), as shown in Figure 2E. Next, ≈10^6 beads library was incubated with FITC‐labeled sSema4D for 6 hours. The beads were thoroughly washed with DMF, water and methanol. Finally, under the fluorescence microscope, the beads with […] to sSema4D or FITC‐labeled sSema4D through noncovalent bonding were identified in Figure 2F. We selected twelve strongest putative fluorescent beads by physical separation. Subsequently, the corresponding peptides were cleaved off with BrCN from beads and analyzed by automatic Edman sequencing. The structures and sequence of transformable peptides (TPs) were determined and summarized (Figure S2, Supporting Information). TP‐1 to TP‐12 were resynthesized into solid phase and purified by high performance liquid chromatography (HPLC). The binding affinity of TPs toward sSema 4D was measured by enzyme‐linked immunosorbent assay (ELISA) and surface plasmon resonance imaging (SPRi). […] TP‐2 and TP‐7 were selected as the candidate TP binding sSema 4D to construct SSP. Subsequent SSP monomers (SSP‐1, sequence: C16‐FFVLK‐KQKRPRH; SSP‐2 C16‐FFVLK‐KNKAAKG) were synthesized and characterized by HPLC and Matrix‐assisted laser desorption/ionization time‐of‐flight mass spectrometry (MALDI‐TOF‐MS).
row,Kd [nM],Compound
1,41.7,C[C@H](NC(=O)[C@H](C)NC(=O)[C@H](CCCCN)NC(=O)[C@H](CC(N)=O)NC(=O)[C@@H](N)CCCCN)C(=O)N[C@@H](CCCCN)C(=O)NCC(=O)O [TP-2] (H-KNKAAKG-OH)
2,14.6,N=C(N)NCCC[C@H](NC(=O)[C@@H]1CCCN1C(=O)[C@H](CCCNC(=N)N)NC(=O)[C@H](CCCCN)NC(=O)[C@H](CCC(N)=O)NC(=O)[C@@H](N)CCCCN)C(=O)N[C@@H](Cc1c[nH]cn1)C(=O)O [TP-7] (H-KQKRPRH-OH)
3,64,CC(C)[C@H](NC(=O)[C@H](CCCNC(=N)N)NC(=O)[C@H](C)NC(=O)[C@@H]1CCCN1C(=O)[C@H](C)NC(=O)[C@@H](N)CCCCN)C(=O)NCC(=O)O [TP-10] (H-KAPARVG-OH)
